# Patent US20080057039A1, “Diagnostic and Therapeutic Treatments Related to Mitochondrial Disorders” (priority 2003, published 2008)
# Entries after “also recorded” stand apart in the source; their conditions may differ.
# Experiments:
# [1] = test system: DRG neurons; assay: dorsal root ganglia (DRG) neurite outgrowth assay; format: cell-based, mice; details: for neurite outgrowth from DRGs: neonatal mice; for effect on Fas-induced neurite growth: DRGs stimulated through Fas
# Text: We have shown that engaging Fas on sensory neurons induces a rapid, extensive regenerative response. We used the dorsal root ganglia (DRG) neurite outgrowth assay to determine whether Fas engagement could induce axon regeneration in vitro. […] We cultured DRGs with anti-Fas antibodies, with isotype matched control antibodies (as a negative control) or with NGF (as a positive control).
# Fas engagement induces neurite outgrowth and p35 upregulation in dorsal root ganglia (D)RG) explants. To determine whether Fas-induced activation of the ERK/p35 pathway in neuroblastoma cells correlated with neurite sprouting in primary neurons, we used the DRG neurite outgrowth assay, a well characterized model for axon regeneration from primary neurons in vitro (Harada, T. et al., 2001, Nat. Cell Biol., 3:453). DRGs are collections of sensory neuron cell bodies, together with supporting Schwann cells and fibroblasts. […] We examined Fas expression selectively on the DRG neurons by flow cytometric analysis of DRG cells positive for neuron-specific tubulin III, thus excluding Schwann cells and other non-neural cell types from the analysis. […] The uniform shift in fluorescence intensity, without the presence of distinct subpopulations, indicates uniform Fas expression on the DRG neurons (geometric mean fluorescence intensity shift from 10.95 with negative control staining to 22.39 with anti-Fas staining). DRG explants were cultured with anti-Fas antibodies, with isotype-matched control antibodies (as a negative control), or with NGF (as a positive control). […] Fas-induced neurite outgrowth was indistinguishable from NGF-induced neurite outgrowth kinetically and by morphological criteria (neurite numbers, length, and branching), and could not be differentiated by blinded observers. Fas-induced neurite growth was robust and prolific, completely filling the wells of 96-well plates after two weeks in culture. […] Thus, Fas engagement induced a rapid and prolific neurite outgrowth response in primary sensory neurons.
# [2] = test system: p35; assay: p35 upregulation in DRG explants (Western blots); format: cell-based, mice; details: 24-hour stimulation, p35 normalized to actin
# Text: As in SH-SY5Y neurons, Fas engagement induced p35 upregulation in DRG explants after 24-hour stimulation. […] Fas-induced neurite growth is independent of NGF and caspase 8 function, but dependent on ERK activation.
# [3] = test system: p35; assay: Fas-induced p35 expression in SH-SY5Y cells; format: cell-based, human; details: anti-Fas antibodies plus inhibitor
# Protocol: Sustained activation of ERK for more than 80 minutes was necessary and sufficient for NGF-inducible neurite outgrowth, and p35 upregulation driven by sustained ERK activation is an essential component of this pathway (Pang, L. et al., 1995, J. Biol. Chem., 270:13585; Harada, T. et al., 2001, Nat. Cell Biol., 3:453). Thus, we examined SH-SY5Y cells for Fas-induced p35 expression. […] Thus, Fas engagement-induced sustained ERK activation and MEKI / ERK-dependent p35 expression in SH-SY5Y neuroblastoma cells.
# [4] = test system: ERK; assay: ERK activation (dual phosphorylation at threonine 202 and tyrosine 204) in SH-SY5Y cells; format: cell-based, human; details: for effect on Fas-induced ERK activation: plus inhibitor
# Protocol: Fas engagement induces ERK activation and p35 expression in SY-SHSY cells. Fas cross-linking has been reported to activate ERK in glioma cells (Shinohara, H. et al., 2000, Cancer Research, 60:1766). […] Fas-induced ERK activation was inhibited by PD98059, but appeared to be caspase 8 independent as it was not affected by […]. ERK activation was detected within five minutes of Fas engagement, and persisted for up to 150 minutes.
# [5] = test system: caspase 8; assay: caspase 8 cleavage in Jurkat cells; format: cell-based, human; details: for effect on caspase 8 cleavage: Jurkat cells stimulated through Fas, plus inhibitor
# Text: (§1) As previously reported, Jurkat T cells underwent Fas-induced apoptosis (7.6+2.8% apoptotic cells in the untreated cultures versus 31.3±3.5% in the anti-Fas antibody-treated cultures) (Wilson, D. et al., 1999, Cell Lnmunol., 194:67). […] We then treated the cells with Fas Ligand (FasL) constructs, consisting of FasL fused to a linker peptide and a FLAG-tag that facilitate formation of active trimers. […] Conversely, blockade of the ERK pathway by the MEK1-specific inhibitor PD98059 had no effect on Jurkat apoptosis. […] In addition, we examined replicate populations of cells for evidence of caspase 8 cleavage as an indication of Fas-induced apoptosis, after 4 hours in culture with control antibodies or anti-Fas antibodies.
# (§2) Furthermore, SH-SY5Y cells expressed dramatically less caspase 8 than did Jurkat cells, although they expressed similar levels of FLIP and of Fas. Low levels of caspase 8 expression and inefficient (or non-physiological) Fas ligation by anti-Fas antibody could have masked potential Fas-induced caspase 8 cleavage in SH-SY5Y cells. Therefore, we stimulated the cells with FasL constructs and normalized protein loading to equivalent caspase 8 (instead of equivalent total protein).
# [6] = test system: Jurkat cells; assay: Fas-induced apoptosis, cell cycle analysis by flow cytometry; format: cell-based, human; details: for effect on apoptosis induction by FasL constructs: Jurkat cells, FasL constructs plus inhibitor
# Text: (§3) SH-SY5Y neuroblastoma cells are insensitive to Fas-mediated apoptosis. We used the well-characterized Fas-positive human neuroblastoma cell line SH-SY5Y to investigate Fas signaling in neuronal cells. Because Fas is best known as an inducer of apoptosis, we began by examining anti-Fas-treated SH-SY5Y cells for evidence of Fas-induced apoptosis. Jurkat cells, a human T cell leukemia line considered a model for Fas-mediated apoptosis (Wilson, D. et al., 1999, Cell Immunol., 194:67), provided a positive control. We confirmed that SH-SY5Y cells expressed cell surface Fas by flow cytometry. We then performed cell cycle analysis by flow cytometry on untreated and anti-Fas-treated Jurkat and SH-SY5Y cells after 48 hours in culture.
# as §1
# [7] = test system: SH-SY5Y neuroblastoma cells; assay: as above; format: cell-based, human; details: for effect on apoptosis of FasL-treated neuroblastoma cells: SH-SY5Y, FasL constructs plus inhibitor
# Text: as §3, §1
# [8] = test system: B7.1; assay: cell surface B7.1 on C17.2 neuronal stem cells after H2O2; format: cell-based, mouse; details: C17.2 cells, 24-hr exposure, 0.25 mM
# [9] = test system: Fas (CD95); assay: cell surface Fas on C17.2 neuronal stem cells after H2O2; format: cell-based, mouse; details: C17.2 cells, 24-hr exposure, 0.25 mM
# Protocol: Non-permeabilized cells were stained with antibodies to the cell surface receptors Fas (CD95) (Pharmingen) or with antibodies to uncoupling proteins (anti-UCP2 antibody) (Alpha Diagnostic International). Antibodies for both the isotype control and actual stain were added to the cell suspension, mixed, and then placed on ice for and incubation of 25 minutes in the dark. Subsequently the cells were centrifuged at 300×g for 5 minutes and the supernatant removed. The cells were washed one time with 100 μL of PBS/2% FBS and then transferred into flow cyotmetric tubes containing 500 μL of PBS/2% FBS for analysis.
# We have measured the levels of intracellular H2O2 in these cells. […] C17.2 cells from passage 15 contained 4-fold higher amount of UCP-2 than C17.2 cells at passage 11. Ts65Dn mice and controls fed regular and fatty acid enriched diet. The effects of dietary supplementation with alpha lipoic acid (LA) and […] (ALCAR) on the Ts65Dn mouse and the strain matched control animals have been examined. […] We attempted this supplementation with old (18 months) Ts65Dn mice.
# C17.2 mouse neuronal stem cells (a kind gift from Dr. Evan Schnyder, Harvard) were cultured as described in the Methods above. The cells were treated or not with H2O2 at the concentration indicated on the graphs of FIG. 2. […]
# [10] = test system: caspase 8; assay: caspase 8 cleavage in SH-SY5Y cells; format: cell-based, human
# Text: as §1, §2
molecule,measurement,setting,value
nerve growth factor [NGF],neurite outgrowth from DRGs,[1]; DRG explants,sprout neurites
same,neurite outgrowth in dissociated DRG cultures,[1]; glial growth suppressed with cytosine arabinoside,induced
same,neurite outgrowth from DRGs of lpr mice,"[1]; lpr mice, low to absent Fas expression",delayed and diminished neurite outgrowth
same,p35 upregulation compared to untreated DRGs,[2],3.3 fold
COc1cccc(-c2cc(=O)c3ccccc3o2)c1N [PD98059],toxicity to other DRG cells such as Schwann cells,[1]; DRG explants,not toxic
same,effect on Fas-induced neurite growth,[1],prevented
same,effect on NGF-induced neurite outgrowth,[1]; DRGs stimulated with NGF,blocked
same,toxicity to DRG neurons,"[1]; inhibitor washed out after two days, restimulated with NGF or FasL constructs",did not kill the neurons
same,effect on Fas-induced p35 upregulation,[3],prevented
same,effect on Fas-induced ERK activation,[4],inhibited
same,effect on caspase 8 cleavage,[5],unaffected
same,effect on apoptosis induction by FasL constructs,[6],no effect
same,effect on apoptosis of FasL-treated neuroblastoma cells,[7],Neither IETD nor PD98059 had any effect
z-IETD-frnk,effect on Fas-induced neurite growth,[1],not affected; also recorded: not blocked
same,effect on Fas-induced ERK activation,[4],not affected
same,effect on caspase 8 cleavage,[5],reduced to background levels
same,effect on apoptosis induction by FasL constructs,[6],completely abrogated
same,effect on apoptosis of FasL-treated neuroblastoma cells,[7],Neither IETD nor PD98059 had any effect
OO [H2O2],cell surface expression of B7.1,[8],increased
same,cell surface expression of Fas (CD95),[9],increased
"FasL constructs: FasL fused to a linker peptide and a FLAG-tag that facilitate formation of active trimers (protein, UniProt P48023 130-281, looked up, linker, FLAG tag) Tumor necrosis factor ligand …: QIGHPSPPPEKKELRKVAHLTGKSNSRSMPLEWEDTYGIVLLSGVKYKKGGLVINETGLYFVYSKVYFRGQSCNNLPLSHKVYMRNSKYPQDLVMMEGKMMSYCTTGQMWARSSYLGAVFNLTSADHLYVNVSELSLVNFEESQTFFGLYKL",neurite outgrowth from DRGs,[1]; DRG explants,induced robust neurite growth
same,ERK activation,[4],triggered ERK activation
same,"increase of caspase 8 cleavage, treated versus untreated cells","[5]; Jurkat cells, loading normalized to equivalent caspase 8",more than 60%
same,induction of caspase 8 cleavage,[10],no increase
same,apoptotic cells,"[6]; Jurkat, after 24 hour treatment",> 90%
same,apoptotic response,[7]; SH-SY5Y cells,failed to induce any detectable apoptotic response
